According to article PMC9583322, “Vicinal Diaryl-Substituted Isoxazole and Pyrazole Derivatives with In Vitro Growth Inhibitory and In Vivo Antitumor Activity” (ACS Omega, 2022):

Tests used:
Huh7 = assay: SRB cytotoxicity assay; assay type: cell-based, human; details: 72 h treatment
Procedure: (§1) HepG2, FOCUS, Hep3B, Mahlavu, Huh7, Hep40, and PLC-PRF-5 hepatocellular carcinoma cells; MCF-7, MDA-MB-231, MDA-MB-468, SKBR3, and ZR-75 breast cancer cells; and normal-like epithelial MCF-10A breast cells were cultured in low-glucose Dulbecco’s modified Eagle’s medium (DMEM) (Biological Industries-BI) supplemented with 10% fetal bovine serum (FBS) (Gibco/Thermo Fisher Scientific), 2 mM L-Glutamine (Gibco/Thermo Fisher Scientific), 100 Units/mL Penicillin/Streptomycin, and 0.1 mM non-essential amino acid (Gibco/Thermo Fisher Scientific). SNU475 hepatocellular carcinoma cells were maintained in RPMI (Biological Industries-BI) supplemented with 10% fetal bovine serum (FBS) (Gibco/Thermo Fisher Scientific), L-Glutamine (Gibco/Thermo Fisher Scientific), and 100 Units/mL Penicillin/Streptomycin, while ZR-75 breast cancer cells were cultured RPMI (Biological Industries-BI) supplemented with 10% fetal bovine serum (FBS) (Gibco/Thermo Fisher Scientific), 1× sodium pyruvate, and %4.5 glucose. Normal-like MCF-10A breast cells were sustained in DMEM/HAM’S F12 (Hyclone) supplemented with 10% fetal bovine serum (FBS) (Gibco/Thermo Fisher Scientific), EGF (20 ng/mL), Hydrocortisone ([…]), cholera toxin (100 ng/mL), insulin (10 μg/mL), and 100 Units/mL Penicillin/Streptomycin. The cells were cultivated at 37 °C in a humidified incubator under 5% CO2.
(§2) Mahlavu, FOCUS, SNU475 (1000 cell/well in 150 μL/well); Huh7, MCF7 (2500 cell/well in 150 μL/well); HepG2, Hep3B, SKBR3 (3000 cell/well in 150 μL/well); PLC-PRF-5, Hep40 (5000 cell/well in 150 μL/well); MDA-MB-231, MDA-MB-468, MCF10A (6000 cell/well in 150 μL/well); and ZR-75 (7500 cell/well in 150 μL/well) were cultured in 96-well plates and were inoculated in an incubator for 24 hours. The compounds were dissolved in dimethyl sulfoxide (DMSO) (Sigma, St Louis, MO) as a 20 mM stock solution. The treatment of cells with the compounds was done in a concentration range starting from 40 to 2.5 μM. The compounds which were below 2.5 μM were tested in a concentration range from 2.5 to 0.15 μM. End of the 72h compound treatment, the cells were fixed using 10% (v/v) trichloroacetic acid (MERCK) for an hour and washed with ddH2O, and left for air-drying. The fixed plates were stained with 50 μL of sulforhodamine B (SRB) solution (Sigma) at RT for 10 min. To remove unbound SRB dye, acetic acid was used to wash cells three times and left for drying. The protein-bound SRB was solubilized with 10 mM Tris-base (Sigma) and their absorbance was measured with a 96-well plate reader at 515 nm wavelength (ELx800, Biotek). The IC50 values of compounds were calculated in comparison with control group DMSO. Data with R^2 values larger than 0.9 are considered significant.

MCF7 = assay: SRB cytotoxicity assay; assay type: cell-based, human; details: Homo sapiens, MCF7, 72 h, 72 h treatment
Procedure: as §1, §2

Mahlavu = assay: SRB cytotoxicity assay; assay type: cell-based, human; details: Homo sapiens, Mahlavu, 72 h, 72 h treatment
Procedure: as §1, §2

Huh7, Mahlavu and MCF7 = assay: SRB cytotoxicity, summary for all three cell lines; assay type: cell-based; details: Homo sapiens; one value or range for Huh7, Mahlavu and MCF7 together; read-out: IC50 against all three cell lines
Procedure: as §2

Huh7 and MCF7 = assay: SRB cytotoxicity, summary for both cell lines; assay type: cell-based; details: Homo sapiens; one value or range for Huh7 and MCF7 together; read-out: IC50 against both cell lines
Procedure: as §2

| SMILES | IC50 (Huh7; Homo sapiens, Huh-7, 72 h) | IC50 (MCF7) | IC50 (Mahlavu) | IC50 (Huh7, Mahlavu and MCF7) | melting point | IC50 (Huh7) | IC50 (Huh7 and MCF7) |
| --- | --- | --- | --- | --- | --- | --- | --- |
| Cc1ccccc1COc1ccc(-c2c(-c3ccc(Cl)cc3)noc2C)cc1 [compound 67, 3-(4-Chlorophenyl)-5-methyl-4-(4-((2-methylbenzyl)oxy)phenyl)isoxazole] | > 20 µM | > 20 µM | > 20 µM | ≥ 20 µM | 84.5 to 86.5 °C | – | – |
| Cc1ccccc1COc1ccc(-c2noc(N)c2-c2ccc(Cl)cc2)cc1 [compound 65, 4-(4-Chlorophenyl)-3-(4-((2-methylbenzyl)oxy)phenyl)isoxazole-5-amine] | 2 µM | 3.6 µM | 3.9 µM | 2 to 3.9 µM | 163.1 to 165.6 °C | – | – |
| Cc1onc(-c2ccc(OCc3ccccc3)cc2)c1-c1ccc(Cl)cc1 [compound 9, 3-(4-(Benzyloxy)phenyl)-4-(4-chlorophenyl)-5-methylisoxazole] | ≥ 20 µM | > 20 µM | – | – | 114.7 to 115.7 °C | > 20 µM | ≥ 20 µM |
| Cc1cccc(COc2ccc(-c3noc(C)c3-c3ccc(Cl)cc3)cc2)c1 [compound 19, 4-(4-Chlorophenyl)-5-methyl-3-(4-((3-methylbenzyl)oxy)phenyl)isoxazole] | > 20 µM | > 20 µM | – | – | 119.9 to 121 °C | – | ≥ 20 µM |
| Cc1ccccc1COc1ccc(-c2nn(C)cc2-c2ccc(Cl)cc2)cc1 [compound 72, 4-(4-Chlorophenyl)-1-methyl-3-(4-((2-methylbenzyl)oxy)phenyl)-1H-pyrazole] | 6.7 µM | 14.4 µM | 12 µM | 0.7 to 14.4 µM | 142.2 to 143.4 °C | – | – |
| Cc1ccc(COc2ccc(-c3noc(C)c3-c3ccc(Cl)cc3)cc2)cc1 [compound 24, 4-(4-Chlorophenyl)-5-methyl-3-(4-((4-methylbenzyl)oxy)phenyl)isoxazole] | > 20 µM | > 20 µM | – | – | 116.9 to 118.5 °C | – | ≥ 20 µM |
| Cc1cc(-c2ccc(Cl)cc2)n(-c2ccc(OCc3ccccc3C)cc2)n1 [compound 79, 5-(4-Chlorophenyl)-3-methyl-1-(4-((2-methylbenyl)oxy)phenyl)-1H-pyrazole] | 3.9 µM | 11.8 µM | 9.6 µM | 0.7 to 14.4 µM | 103.4 to 105.2 °C | – | – |
| Cc1ccccc1COc1ccc(-c2[nH]ncc2-c2ccc(Cl)cc2)cc1 [compound 71, 4-(4-Chlorophenyl)-5-(4-((2-methylbenzyl)oxy)phenyl)-1H-pyrazole] | 8.4 µM | 17.5 µM | 11 µM | 0.7 to 14.4 µM | 127.8 to 129.8 °C | – | – |
| Cc1cc(-c2ccc(OCc3ccccc3C)cc2)n(-c2ccc(Cl)cc2)n1 [compound 69, 1-(4-Chlorophenyl)-3-methyl-5-(4-((2-methylbenzyl)oxy)phenyl)-1H-pyrazole] | 2 µM | 11.9 µM | 9.2 µM | 0.7 to 14.4 µM | 111.8 to 113.6 °C | – | – |
| Cc1ccccc1COc1ccc(-c2ccnn2-c2ccc(Cl)cc2)c(F)c1 [compound 88, 1-(4-Chlorophenyl)-5-(2-fluoro-4-((2-methylbenzyl)oxy)phenyl)-1H-pyrazole] | 1.6 µM | 6.4 µM | 3.2 µM | 1.6 to 6.4 µM | 131.8 to 132.8 °C | – | – |
